The values below come from paper PMC11844072, “Novel 5,6-dichlorobenzimidazole derivatives as dual BRAFWT and BRAFV600E inhibitors: design, synthesis, anti-cancer activity and molecular dynamics simulations” (BMC Chemistry, 2025).

For one experiment, the system named is KM12. The experiment can be described thus: NCI 5-dose assay. Format: cell-based. Conditions: Homo sapiens; KM12, Colon cancer. In short, it runs like this: (§1)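 Growth measured by sulforhodamine B protein staining (515 nm) after 48 h drug exposure at 37 °C, following 24 h plating in RPMI 1640 with 5% FBS and 2 mM L-glutamine. Compounds first tested at one 10 µM dose, then five-dose series (10-fold or ½ log steps); percent growth relative to time-zero and untreated wells.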

Another experiment concerns SK-MEL-28. The experiment can be described thus: NCI 5-dose assay. Format: cell-based. Conditions: Homo sapiens; SK-MEL-28, Melanoma. Put shortly:
as §1

For a further experiment, the system named is SF-268. The experiment can be described thus: NCI 5-dose assay. Format: cell-based. The settings on record: Homo sapiens; SF-268, CNS cancer. In short, it runs like this:
as §1

The next experiment relates to 786-0. The experiment can be described thus: NCI 5-dose assay. The settings on record: Homo sapiens; 786-0, Renal cancer. The experiment is classed as cell-based. Put shortly:
as §1

For the next experiment, the system named is MDA-MB-468. The experiment can be described thus: NCI 5-dose assay. The experiment is classed as cell-based. The settings on record: Homo sapiens; MDA-MB-468, Breast cancer. In short, it runs like this: as §1
Another experiment relates to TK-10. The experiment can be described thus: NCI 5-dose assay. The settings on record: Homo sapiens; TK-10, Renal cancer. Format: cell-based. In short, it runs like this: as §1
The next experiment concerns NCI/ADR-RES. The experiment can be described thus: NCI 5-dose assay. Format: cell-based. Conditions: Homo sapiens, Ovarian cancer. Put shortly: as §1
The test system of the next experiment is OVCAR-8. The experiment can be described thus: NCI 5-dose assay. The experiment is classed as cell-based. Conditions: Homo sapiens; OVCAR-8, Ovarian cancer. In short, it runs like this:
as §1

A further experiment concerns A549/ATCC. The experiment can be described thus: NCI 5-dose assay. The experiment is classed as cell-based. Conditions: Homo sapiens, Non-small cell lung cancer. Put shortly: as §1
Another experiment relates to HT29 cell line. The experiment can be described thus: Cell cycle analysis (PI flow cytometry). Format: cell-based, human. Here is the method: 7. Analysis of cell cycle distribution
HT29: Colon Cancer was obtained from Nawah Scientific Inc., (Mokatam, Cairo, Egypt). Cells were maintained in DMEM media supplemented with […] of streptomycin, 100 units/mL of penicillin and 10% of heat-inactivated fetal bovine serum in humidified, 5% (v/v) CO 2 atmosphere at 37 °C. After treatment with test compound 8m for 48h, cells (10^5 cells) are collected by trypsinization and washed twice with ice-cold PBS (pH 7.4). Cells are re-suspended in two milliliters of 60% ice-cold ethanol and incubated at 4 °C for 1h for fixation. Fixed cells are washed twice again with PBS (pH 7.4) and re-suspended in 1 mL of PBS containing 50 μg/mL RNAase A and 10 μg/mL propidium iodide (PI). After 20 min of incubation in dark at 37 °C, cells are analyzed for DNA contents using flow cytometry analysis using FL2 (λex/em 535/617 nm) signal detector (ACEA Novocyte™ flowcytometer, ACEA Biosciences Inc., San Diego, CA, USA). For each sample, 12,000 events are acquired. Cell cycle distribution is calculated using ACEA NovoExpress™ software (ACEA Biosciences Inc., San Diego, CA, USA). […]

[1] abbreviates: HT29, 10h at its GI50 concentration, 48h.

In the case of `COC(=O)COc1ccc(C=NNC(=O)Cn2c(-c3ccc(OC)cc3)nc3cc(Cl)c(Cl)cc32)cc1` [Compound 10h, Methyl-2-(4-((2-(2-(5,6-dichloro-2-(4-methoxyphenyl)-1H-benzo[d]imidazol-1-yl)acetyl)hydrazono)methyl)phenoxy)acetate], the GI50 with KM12 is above 82.5 µM; with SK-MEL-28 it was 11.7 µM; with SF-268, 10.1 µM; in the experiment on 786-0, 3.01 µM; in the experiment with MDA-MB-468, 1.68 µM; with TK-10, 13.2 µM. Moreover, the GI50 is 5.22 µM with NCI/ADR-RES, 2.93 µM with OVCAR-8 and above 82.5 µM in the experiment with A549/ATCC. Moreover, the “%G0/G1” value in the experiment on HT29 cell line (setting [1]) came to 62.69%. Further, the “%G2/M” value in the experiment on HT29 cell line (setting [1]) turned out to be 19.26%. Besides, in the experiment on HT29 cell line (setting [1]), the “%S” value is on record as 18.04%. Moreover, in the experiment with HT29 cell line (setting [1]), the “%Sub-G1” value came to 10.45%. The “effect on cell cycle progression” value in the experiment with HT29 cell line (HT29 colon cancer cell line) is “arrested cell cycle progression in HT29 colon cancer cell line at G2/M phase”.
Take `COC(=O)COc1ccc(C=NNC(=O)Cn2c(-c3ccc(OC)cc3)nc3cc(Cl)c(Cl)cc32)cc1OC` [Compound 10p, Methyl-2-(4-((2-(2-(5,6-dichloro-2-(4-methoxyphenyl)-1H-benzo[d]imidazol-1-yl)acetyl)hydrazono)methyl)-2-methoxyphenoxy)acetate]: the GI50 in the experiment with KM12 is above 72.5 µM; with SK-MEL-28, above 72.5 µM; in the experiment with SF-268, 32.4 µM; in the experiment on 786-0, 2.21 µM; with MDA-MB-468, 1.48 µM; with TK-10, 12.6 µM. Moreover, the 50% growth inhibitory concentration (GI50) in the experiment with NCI/ADR-RES is 3.05 µM; in the experiment with OVCAR-8, 2.54 µM; in the experiment with A549/ATCC it was above 72.5 µM.
Take `COC(=O)COc1cc(C=NNC(=O)Cn2c(-c3ccc(OC)cc3)nc3cc(Cl)c(Cl)cc32)ccc1OC` [Compound 10o, Methyl-2-(5-((2-(2-(5,6-dichloro-2-(4-methoxyphenyl)-1H-benzo[d]imidazol-1-yl)acetyl)hydrazono)methyl)-2-methoxyphenoxy)acetate]: the concentration for 50% growth inhibition (GI50) was above 100 µM in the experiment with KM12; above 100 µM in the experiment on SK-MEL-28; above 100 µM in the experiment with SF-268; 17.9 µM with 786-0; 4.4 µM in the experiment on MDA-MB-468; 18.3 µM with TK-10. Further, the GI50 in the experiment with NCI/ADR-RES is 81.2 µM; in the experiment with OVCAR-8, 8.68 µM; with A549/ATCC it was above 100 µM.
